# According to patent publication US20020164346A1, “Altered peptide ligands” (priority 2001, published 2002):
# System: normal donor HLA-A2+ T cells
# Test: In vitro T cell education with peptide-pulsed autologous dendritic cells; lysis of 51Cr-labeled peptide-pulsed T2 cells
# Format: cell-based, human
# From the text: Normal donor aphoresis products were obtained from Dana-Farber Cancer Research Institute (Boston, Mass.). PBMC were isolated by centrifugation over Ficoll (Nycomed, Oslo, Norway). CD8^+ T cells were isolated using magnetic beads (Dynal, Oslo, Norway) according to the manufacturers instructions. To generate autologous dendritic cells, monocytes were isolated from the PBMC and treated with GM-CSF (Immunex, Seattle, Wash.) and IL-4 (PeproTech, London, England) for 6 days as previously described. One day prior to establishing the T cell/DC cocultures, the DCs were pulsed with peptides (10 μg/ml) overnight followed by the addition of the previously isolated CD8+ T cells at a T:DC of 10:1. Cultures were restimulated with peptide-pulsed DCs. IL-2 (50 IU/ml) was introduced on day 8 and added every 3-4 days as needed. The bulk cultures were assayed one week after the fifth restimulation. Peptide-pulsed T2 cell targets were prepared as described above and adenovirus-infected target cells were allowed to incubate with the viruses for 48 hours at the indicated MOI prior to being used in the CTL assay. […]
# Altered peptides give rise to T cells that recognize the native epitope. […] All data points represent the average of 4 replicates and background lysis, as determined using T2 cells pulsed with equivalent amounts of DMSO containing no peptide, was subtracted out.
substance,measurement,setting,value
native gp100 peptide ligand: native (wild-type) gp100209-217 peptide epitope of the human melanoma antigen gp100,ability of peptide-educated T cells to lyse targets displaying the native antigen/ligand,T cells from normal (healthy) donors educated with the peptide,generally inefficient
same,eliciting reactive T cells (lysis of T2 cells pulsed with native peptide),"after 5 weekly stimulations, bulk T cell cultures, FIG. 3",relatively poor
